Source: ChEMBL document CHEMBL3046389, “Synthesis and biological evaluation of novel hydroquinone dimethyl ethers as potential anticancer and antimicrobial agents” (2013)
Values after ≈ are worked out from the molar mass of the structure shown.

Experiments:
Format in all cases: functional
[1] = test system: Bacillus subtilis; experiment: Antimicrobial activity against Bacillus subtilis ATCC 6633 after 48 hr by two-fold serial broth dilution method; conditions: ATCC 6633, 48 h
[2] = test system: Escherichia coli; experiment: Antimicrobial activity against Escherichia coli ATCC 11775 after 48 hr by two-fold serial broth dilution method; conditions: ATCC 11775, 48 h
[3] = test system: Candida albicans; experiment: Antimicrobial activity against Candida albicans DSM 70014 after 48 hr by two-fold serial broth dilution method; conditions: DSM 70014, 48 h
[4] = test system: Staphylococcus aureus; experiment: Antimicrobial activity against Staphylococcus aureus DSM 1104 after 48 hr by two-fold serial broth dilution method; conditions: DSM 1104, 48 h
[5] = test system: Pseudomonas aeruginosa; experiment: Antimicrobial activity against Pseudomonas aeruginosa ATCC 10145 after 48 hr by two-fold serial broth dilution method; conditions: ATCC 10145, 48 h
[6] = test system: Pseudomonas aeruginosa; experiment: Ratio of ampicillin MIC to compound MIC for Pseudomonas aeruginosa ATCC 10145 after 48 hr by two-fold serial broth dilution method
[7] = test system: SR; experiment: Growth inhibition of Homo sapiens (human) SR cells at 10 uM after 48 hr by SRB assay; conditions: read-out: GI

SMILES	MIC [1]	MIC [2]	MIC [3]	MIC [4]	MIC [5]	MBC [1]	MBC [2]	MFC [3]	MBC [4]	MBC [5]	Ratio [6]	inhibition of growth at 10 µM [7]
COc1ccc(OC)c(/C=C/c2nnc(Nc3ccc(C)cc3)o2)c1	100 mg/L (≈ 296 µM)	50 mg/L (≈ 148 µM)	100 mg/L (≈ 296 µM)	100 mg/L (≈ 296 µM)	50 mg/L (≈ 148 µM)	100 mg/L (≈ 296 µM)	50 mg/L (≈ 148 µM)	100 mg/L (≈ 296 µM)	100 mg/L (≈ 296 µM)	50 mg/L (≈ 148 µM)		
COc1ccc(OC)c(/C=C/c2nnc(Nc3ccccc3)s2)c1	100 mg/L (≈ 295 µM)	50 mg/L (≈ 147 µM)	50 mg/L (≈ 147 µM)	50 mg/L (≈ 147 µM)	100 mg/L (≈ 295 µM)	100 mg/L (≈ 295 µM)	50 mg/L (≈ 147 µM)	50 mg/L (≈ 147 µM)	50 mg/L (≈ 147 µM)	100 mg/L (≈ 295 µM)		
COc1ccc(OC)c(/C=C/c2nnc(Nc3ccc(Cl)cc3)s2)c1	100 mg/L (≈ 267 µM)	100 mg/L (≈ 267 µM)	25 mg/L (≈ 66.9 µM)	25 mg/L (≈ 66.9 µM)	100 mg/L (≈ 267 µM)	100 mg/L (≈ 267 µM)	100 mg/L (≈ 267 µM)	50 mg/L (≈ 134 µM)	100 mg/L (≈ 267 µM)	100 mg/L (≈ 267 µM)		32.1%
COc1ccc(OC)c(/C=C/c2nnc(Nc3ccc(C)cc3)s2)c1	100 mg/L (≈ 283 µM)	100 mg/L (≈ 283 µM)	50 mg/L (≈ 141 µM)	100 mg/L (≈ 283 µM)	100 mg/L (≈ 283 µM)	100 mg/L (≈ 283 µM)	200 mg/L (≈ 566 µM)	50 mg/L (≈ 141 µM)	100 mg/L (≈ 283 µM)	100 mg/L (≈ 283 µM)		
CC1(C)S[C@@H]2[C@H](NC(=O)[C@H](N)c3ccccc3)C(=O)N2[C@H]1C(=O)O.O.O.O [AMPICILLIN TRIHYDRATE]	12.5 mg/L	10 mg/L		5 mg/L	50 mg/L							
Clc1ccccc1C(c1ccccc1)(c1ccccc1)n1ccnc1 [CLOTRIMAZOLE]			5 mg/L (≈ 14.5 µM)									

Further lines, with some results ahead:

MIC [1]	MIC [2]	MIC [3]	MIC [4]	MIC [5]	SMILES	MBC [1]	MBC [2]	MFC [3]	MBC [4]	MBC [5]	Ratio [6]	inhibition of growth at 10 µM [7]
50 mg/L (≈ 136 µM)	50 mg/L (≈ 136 µM)	50 mg/L (≈ 136 µM)	50 mg/L (≈ 136 µM)	12.5 mg/L (≈ 34 µM)	COc1ccc(OC)c(/C=C/c2nnc(SC)n2-c2ccc(C)cc2)c1	50 mg/L (≈ 136 µM)	50 mg/L (≈ 136 µM)	50 mg/L (≈ 136 µM)	50 mg/L (≈ 136 µM)	25 mg/L (≈ 68 µM)	4	
50 mg/L (≈ 131 µM)	100 mg/L (≈ 262 µM)	100 mg/L (≈ 262 µM)	100 mg/L (≈ 262 µM)	100 mg/L (≈ 262 µM)	CCSc1nnc(/C=C/c2cc(OC)ccc2OC)n1-c1ccc(C)cc1	100 mg/L (≈ 262 µM)	100 mg/L (≈ 262 µM)	100 mg/L (≈ 262 µM)	100 mg/L (≈ 262 µM)	100 mg/L (≈ 262 µM)		
25 mg/L (≈ 51.1 µM)	12.5 mg/L (≈ 25.5 µM)	50 mg/L (≈ 102 µM)	25 mg/L (≈ 51.1 µM)	12.5 mg/L (≈ 25.5 µM)	COc1ccc(OC)c(/C=C/c2nnc(SCC(=O)c3cc(O)ccc3O)n2-c2ccccc2)c1	50 mg/L (≈ 102 µM)	25 mg/L (≈ 51.1 µM)	50 mg/L (≈ 102 µM)	50 mg/L (≈ 102 µM)	25 mg/L (≈ 51.1 µM)	4	
12.5 mg/L (≈ 23.9 µM)	25 mg/L (≈ 47.7 µM)	25 mg/L (≈ 47.7 µM)	50 mg/L (≈ 95.4 µM)	12.5 mg/L (≈ 23.9 µM)	COc1ccc(OC)c(/C=C/c2nnc(SCC(=O)c3cc(O)ccc3O)n2-c2ccc(Cl)cc2)c1	25 mg/L (≈ 47.7 µM)	50 mg/L (≈ 95.4 µM)	50 mg/L (≈ 95.4 µM)	50 mg/L (≈ 95.4 µM)	25 mg/L (≈ 47.7 µM)	4	
